US8580965B2, “Substituted sulfonamide compounds” (Gruenenthal GmbH, priority 2006, dated 2013)
Counter-ions that a name gives are not always drawn.

Key:
[1] = molecular target: T1, human B1R receptor (bradykinin 1 receptor) (Homo sapiens, UniProt P46663); assay: FLIPR Ca2+ assay (Fluo-4) on CHO K1 cells stably transfected with the human B1R gene; % activation and % inhibition at 10 μM; assay type: cell-based; settings: CHO K1 hB1R cells, Ca2+ inflow after 0.5 nM Lys-Des-Arg9-bradykinin; for B1R antagonism, human [10 μM] % inhibition: test substance 10 μM; for inhibition at 10 µM: CHO-K1, test substance 10 μM, read-out: B1R antagonism, human [10 μM] % inhibition
T1 construct: host or cells: CHO K1 cells (hB1R cells)
T1 sequence (P46663 1-353): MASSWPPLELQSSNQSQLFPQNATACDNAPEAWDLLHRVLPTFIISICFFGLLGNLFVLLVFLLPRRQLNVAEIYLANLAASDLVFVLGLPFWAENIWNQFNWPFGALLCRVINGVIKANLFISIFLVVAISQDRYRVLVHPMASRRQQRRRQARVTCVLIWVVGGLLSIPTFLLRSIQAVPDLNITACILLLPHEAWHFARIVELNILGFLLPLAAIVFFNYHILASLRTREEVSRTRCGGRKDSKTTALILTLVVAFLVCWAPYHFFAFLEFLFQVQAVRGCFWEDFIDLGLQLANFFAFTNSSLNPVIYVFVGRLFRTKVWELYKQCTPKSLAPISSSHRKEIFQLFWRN
Protocol: (§1) The agonistic or antagonistic action of substances can be quantified on the bradykinin receptor 1 (B1R) of the species human and rat with ectopically expressing cell lines (CHO K1 cells) and with the aid of a Ca^2+-sensitive dye (Fluo-4) using a fluorescent imaging plate reader (FLIPR). The indication in % activation is based on the Ca^2+ signal after addition of Lys-Des-Arg^9-bradykinin (0.5 nM) or Des-Arg^9-bradykinin (100 nM). Antagonists result in a suppression of the Ca^2+ influx following administration of the agonist. The % inhibition in comparison with the maximum achievable inhibition is indicated.
(§2) Functional Investigation on the Bradykinin 1 Receptor (B1R)
(§3) The agonistic or antagonistic action of substances can be determined on the bradykinin 1 receptor (B1R) of the human and rat species with the following assay. According to this assay, the Ca^2+ inflow through the channel is quantified with the aid of a Ca^2+-sensitive dyes (Fluo-4 type, Molecular Probes Europe BV, Leiden, The Netherlands) in a fluorescent imaging plate reader (FLIPR, Molecular Devices, Sunnyvale, USA).
(§4) Chinese Hamster Ovary cells (CHO K1 cells) which are stably transfected with the human B1R gene (hB1R cells, Euroscreen s.a., Gosselies, Belgium) or the B1R gene of the rat (rB1R cells, Axxam, Milan, Italy) are used. For functional investigations, these cells are plated-out on black 96-well plates with a clear base (BD Biosciences, Heidelberg, Germany) in a density of 20,000-25,000 cells/well. Overnight, the cells are incubated at 37° C. and 5% CO2 in culture medium (hB1R cells: Nutrient Mixture Ham's F12, Gibco Invitrogen GmbH, Karlsruhe, Germany; rB1R cells: D-MEM/F12, Gibco Invitrogen, Karlsruhe, Germany) with 10 vol. % FBS (foetal bovine serum, Gibco Invitrogen GmbH, Karlsruhe, Germany). On the following day, the cells are loaded with 2.13 μM Fluo-4 (Molecular Probes Europe BV, Leiden, The Netherlands) in HBSS buffer (Hank's buffered saline solution, Gibco Invitrogen GmbH, Karlsruhe, Germany) […] (Sigma-Aldrich, Taufkirchen, Germany) and 10 mM HEPES (Sigma-Aldrich, Taufkirchen, Germany) for 60 min at 37° C. The plates are subsequently washed 2× with HBSS buffer, and HBSS buffer which additionally contains 0.1% BSA (bovine serum albumin; Sigma-Aldrich, Taufkirchen, Germany), 5.6 mM glucose and 0.05% gelatine (Merck KGaA, Darmstadt, Germany) is added. After a further incubation of 20 minutes at room temperature, the plates are inserted into the FLIPR for Ca^2+ measurement. The Ca^2+-dependent fluorescence is measured here before and after addition of substances (λex=488 nm, λem=540 nm). The quantification is effected by measurement of the highest fluorescence intensity (FC, fluorescence counts) over time.
(§5) The FLIPR protocol comprises 2 additions of substance. Test substances (10 μM) are first pipetted on to the cells and the Ca^2+ inflow is compared with the control (hB1R: Lys-Des-Arg^9-bradykinin 0.5 nM; rB1R: Des-Arg^9-bradykinin 100 nM). The value in % activation based on the Ca^2+ signal after addition of Lys-Des-Arg^9-bradykinin (0.5 nM) or Des-Arg^9-bradykinin (100 nM) is obtained therefrom. After incubation for 10 minutes, 0.5 nM Lys-Des-Arg^9-bradykinin (hB1R) or 100 nM Des-Arg^9-bradykinin (rB1R) are applied and the inflow of Ca^2+ is likewise determined. Antagonists lead to a suppression of the Ca^2+ inflow. % inhibition compared with the maximum inhibition which can be achieved is calculated. The compounds show a good activity on the human and on the rat receptor. The following data were determined by way of example: […]

[2] = molecular target: T2, B1R receptor of the rat (bradykinin 1 receptor) (Rattus norvegicus, UniProt P97583); assay: FLIPR Ca2+ assay (Fluo-4) on CHO K1 cells stably transfected with the B1R gene of the rat; % activation and % inhibition at 10 μM; assay type: cell-based; settings: CHO K1 rB1R cells, Ca2+ inflow after 100 nM Des-Arg9-bradykinin; for B1R antagonism, rat [10 μM] % inhibition: test substance 10 μM; for inhibition at 10 µM: CHO-K1, test substance 10 μM, read-out: B1R antagonism, rat [10 μM] % inhibition
T2 construct: host or cells: CHO K1 cells (rB1R cells)
T2 sequence (P97583 1-337): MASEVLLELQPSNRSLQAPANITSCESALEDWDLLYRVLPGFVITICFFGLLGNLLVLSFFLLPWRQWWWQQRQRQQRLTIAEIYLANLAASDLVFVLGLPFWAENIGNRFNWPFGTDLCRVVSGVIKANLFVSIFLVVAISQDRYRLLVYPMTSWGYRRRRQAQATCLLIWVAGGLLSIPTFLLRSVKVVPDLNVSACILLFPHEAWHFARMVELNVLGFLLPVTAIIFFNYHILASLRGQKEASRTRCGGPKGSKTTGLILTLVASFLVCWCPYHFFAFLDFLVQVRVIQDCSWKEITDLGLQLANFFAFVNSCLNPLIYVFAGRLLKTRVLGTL
Protocol: as §1, §2, §3, §4, §5

| Compound | inhibition at 10 µM [1] [%] | inhibition at 10 µM [2] [%] | also measured |
| --- | --- | --- | --- |
| 2-((2-(3,4-dichlorophenylsulfonyl)-1,2,3,4-tetrahydroisoquinolin-3-yl)methoxy)-1-(4-hydroxy-4-phenylpiperidin-1-yl)ethanone [Example 76] |  |  | B1R antagonism, human [10 μM] % inhibition [1]: 9.96%; B1R antagonism, rat [10 μM] % inhibition [2]: 43.59% |
| CCN(CCOCC(=O)N1CCC(O)(Cc2ccccc2)CC1)S(=O)(=O)c1c(C)cc(OC)c(C)c1C [Example 1, N-{2-[2-(4-benzyl-4-hydroxy-piperidin-1-yl)-2-oxo-ethoxy]-ethyl}-N-ethyl-4-methoxy-2,3,6-trimethyl-phenylsulfonamide] | 104 | 102 |  |
| CN(CCOCC(=O)N1CCC(O)(c2cccnc2)CC1)S(=O)(=O)c1c(Cl)cc(Cl)cc1Cl [Example 2, 2,4,6-trichloro-N-{2-[2-(4′-hydroxy-3′,4′,5′,6′-tetrahydro-2′H-[3,4′]bipyridinyl-1′-yl)-2-oxo-ethoxy]-ethyl}-N-methyl-phenylsulfonamide] | 104 | 103 |  |
| COc1cc(C)c(S(=O)(=O)N(C)CCOCC(=O)N2CCC(O)(c3cccnc3)CC2)c(C)c1 [Example 3, N-(2-(2-(4-hydroxy-4-(pyridin-3-yl)piperidin-1-yl)-2-oxoethoxy)ethyl)-4-methoxy-N,2,6-trimethylphenylsulfonamide hydrochloride] |  |  | B1R antagonism, human [10 μM] % inhibition ([1]; hydrochloride): 102.19%; B1R antagonism, rat [10 μM] % inhibition ([2]; hydrochloride): 103.06% |
| COc1cc(C)c(S(=O)(=O)N(C)CCOCC(=O)N2CCC(O)(c3ccccn3)CC2)c(C)c1 [Example 4, N-{2-[2-(4′-hydroxy-3′,4′,5′,6-tetrahydro-2′H-[2,4′]bipyridinyl-1′-yl)-2-oxo-ethoxy]-ethyl}-4-methoxy-2,6,N-trimethyl-phenylsulfonamide] |  |  | B1R antagonism, human [10 μM] % inhibition [1]: 101.69%; B1R antagonism, rat [10 μM] % inhibition [2]: 105.56% |
| CN(CCOCC(=O)N1CCC(O)(c2cccnc2)CC1)S(=O)(=O)c1c(Cl)cc(Cl)cc1Cl [Example 5, 2,4,6-trichloro-N-(2-(2-(4-hydroxy-4-(pyridin-3-yl)piperidin-1-yl)-2-oxoethoxy)ethyl)-N-methylphenylsulfonamide hydrochloride] |  |  | B1R antagonism, human [10 μM] % inhibition ([1]; hydrochloride): 101.04%; B1R antagonism, rat [10 μM] % inhibition ([2]; hydrochloride): 95.11% |
| CN(CCOCC(=O)N1CCC(O)(c2ccccn2)CC1)S(=O)(=O)c1c(Cl)cc(Cl)cc1Cl [Example 6, 2,4,6-trichloro-N-{2-[2-(4′-hydroxy-3′,4′,5′,6′-tetrahydro-2′H-[2,4′]bipyridinyl-1′-yl)-2-oxo-ethoxy]-ethyl}-N-methyl-phenylsulfonamide] | 100 | 93.9 |  |
| COc1cc(C)c(S(=O)(=O)N2CCC(OCC(=O)N3CCC(O)(Cc4ccccc4)CC3)C2)c(C)c1C (stereo not shown) [Example 7, 1-(4-benzyl-4-hydroxy-piperidin-1-yl)-2-[1-(4-methoxy-2,3,6-trimethyl-phenylsulfonyl)-pyrrolidin-3-yloxy]-ethanone] | 99.8 | 35.2 |  |
| COc1cc(C)c(S(=O)(=O)N2CCC(OCC(=O)N3CCC(O)(Cc4ccccc4)CC3)CC2)c(C)c1C [Example 8, 1-(4-benzyl-4-hydroxy-piperidin-1-yl)-2-[1-(4-methoxy-2,3,6-trimethyl-phenylsulfonyl)-piperidin-4-yloxy]-ethanone] | 97.4 | 33.3 |  |
| CN(CCOCC(=O)N1CCC(O)(Cc2ccccc2)CC1)S(=O)(=O)c1c(Cl)cc(Cl)cc1Cl [Example 9, N-{2-[2-(4-benzyl-4-hydroxy-piperidin-1-yl)-2-oxo-ethoxy]-ethyl}-2,4,6-trichloro-N-methyl-phenylsulfonamide] | 95.7 | 91.1 |  |
| CN(CCOCC(=O)N1CCC(O)(c2ccccn2)CC1)S(=O)(=O)c1c(Cl)cccc1Cl [Example 10, 2,6-dichloro-N-{2-[2-(4′-hydroxy-3′,4′,5′,6′-tetrahydro-2′H-[2,4′]bipyridinyl-1′-yl)-2-oxo-ethoxy]-ethyl}-N-methyl-phenylsulfonamide] | 90.3 | 73.6 |  |
| O=C(COC1CCN(S(=O)(=O)c2ccc(Cl)cc2Cl)C1)N1CCC(O)(c2ccccn2)CC1 (stereo not shown) [Example 17, 2-[1-(2,4-dichloro-phenylsulfonyl)-pyrrolidin-3-yloxy]-1-(4′-hydroxy-3′,4′,5′,6′-tetrahydro-2′H-[2,4′]bipyridinyl-1′-yl)-ethanone] | 28 | 1.79 |  |
| O=C(COCC1CCc2ccccc2N1S(=O)(=O)c1ccc(Cl)c(Cl)c1)N1CCC(O)(c2cccc(F)c2)CC1 (stereo not shown) [Example 145, 2-((1-(3,4-dichlorophenylsulfonyl)-1,2,3,4-tetrahydroquinolin-2-yl)methoxy)-1-(4-(3-fluorophenyl)-4-hydroxypiperidin-1-yl)ethanone] |  | 77.3 |  |
| O=C(COCC1CCCCN1S(=O)(=O)c1cc(Cl)sc1Cl)N1CCC(O)(c2ccc(Cl)c(C(F)(F)F)c2)CC1 (stereo not shown) [Example 247, 1-(4-(4-chloro-3-(trifluoromethyl)phenyl)-4-hydroxypiperidin-1-yl)-2-((1-(2,5-dichlorothiophen-3-ylsulfonyl)piperidin-2-yl)methoxy)ethanone] |  | 99.2 |  |

More lines, main results first:

| inhibition at 10 µM [1] [%] | inhibition at 10 µM [2] [%] | Compound | also measured |
| --- | --- | --- | --- |
|  | 105 | Cc1cc(S(=O)(=O)N2CCCCC2COCC(=O)N2CCC(O)(c3ccc(Cl)c(C(F)(F)F)c3)CC2)c(C)cc1Cl (stereo not shown) [Example 160, 2-((1-(4-chloro-2,5-dimethylphenylsulfonyl)piperidin-2-yl)methoxy)-1-(4-(4-chloro-3-(trifluoromethyl)phenyl)-4-hydroxypiperidin-1-yl)ethanone] |  |
|  | 79.9 | COc1cc(C)c(S(=O)(=O)N2CCCC(COCC(=O)N3CCC(O)(c4ccc(Cl)c(C(F)(F)F)c4)CC3)C2)c(C)c1 (stereo not shown) [Example 253, 1-(4-(4-chloro-3-(trifluoromethyl)phenyl)-4-hydroxypiperidin-1-yl)-2-((1-(4-methoxy-2,6-dimethylphenylsulfonyl)piperidin-3-yl)methoxy)ethanone] |  |
